Test results taken from patent USRE47689E1, “Compounds for treating spinal muscular atrophy” (PTC Therapeutics, Inc., priority 2011, dated 2019).

Key:
[1] = system: Smn protein; test: Smn protein assay in human motor neurons; type: cell-based; details: human motor neurons derived from SMA iPS cells; increasing concentrations; 72 hours; confocal fluorescence microscopy
Method: Smn immunofluorescent confocal microscopy is used to quantify the level of Smn protein in human motor neurons treated with test compounds.
Protocol. Human motor neurons derived from SMA iPS cells (Ebert et al., Nature, 2009, […]; and, Rubin et al., BMC Biology, 2011, 9:42) are treated with test compound at various concentrations for 72 hours. The level of Smn protein in the cell nucleus is quantified using Smn immunostaining and confocal fluorescence microscopy essentially as described in Makhortova et al., Nature Chemical Biology, 2011, 7:544. The level of Smn protein in compound-treated samples is normalized to that in vehicle-treated samples and plotted as a function of the compound concentration.

[2] = system: full length and Δ7 SMN2 mRNAs; test: Endogenous SMN2 mRNA end-point semi-quantitative RT-PCR splicing assay in animal tissues; type: in vivo, mouse; details: C/C-allele SMA mice, brain and muscle, oral gavage twice per day for 10 days, agarose gel
Method: The endpoint reverse transcription-PCR (RT-PCR) splicing assay is used to quantify the levels of the full length and Δ7 SMN2 mRNAs in tissues from mice treated with test compound.
Protocol. C/C-allele SMA mice are treated by oral gavage two times per day for 10 days with test compounds in 0.5% HPMC and 0.1% Tween-80. Tissue samples are collected and snap frozen for RNA purification.
Tissue samples (20-40 mg) are homogenized in QIAzol Lysis Reagent for 2 minutes at 20 Hz in the TissueLyser II using one stainless steel bead. After addition of chloroform, the homogenate is separated into aqueous and organic phases by centrifugation. RNA partitioned to the upper, aqueous phase is extracted and ethanol is added to provide appropriate binding conditions. The sample is then applied to the RNeasy spin column from the RNeasy Mini Kit, where total RNA binds to the membrane. The RNA is eluted in RNase-free water then stored at −20° C.
SMN2 spliced products are identified using the following amplification primers in Table 8. These primers hybridize to a nucleotide sequence in exon 6 (SMN Forward D, SEQ ID NO. 13) (nucleotide 22 to nucleotide 46) and exon 8 (SMN Reverse C, SEQ ID NO. 12) common to human SMN1 and SMN2 mRNAs.
To synthesize cDNA, combine 1 μL of RNA solution (25-50 ng), 4 μL of 5× iScript reaction mix, 1 μL of reverse transcriptase, and 10 μL of water are combined and incubates 25° C. for 5 min followed by 42° C. for 30 min followed by 85° C. for 5 min. cDNA solution is stored at −20° C.
To perform endpoint PCR, 5 μL of cDNA, 0.2 μL of 100 μM forward primer, 0.2 μL of 100 μM reverse primer, and 22.5 μL of polymerase super mix are combined in a 96 well semiskirted PCR plate. PCR is carried out at the following temperatures for indicated time: Step 1: 94° C. (2 min), Step 2: 94° C. (30 sec), Step 3: 55° C. (30 sec), Step 4: 68° C. (1 min), then repeat Steps 2 to 4 for a total of 33 cycles, then hold at 4° C.
10 μL of each PCR sample is electrophoretically separated on a 2% agarose E-gel for 14 minutes, stained with ds DNA staining reagents (e.g., ethidium bromide) and visualized using a gel imager.

[3] = system: Smn protein; test: Smn protein assay in tissues of adult C/C-allele SMA mice; type: in vivo, mouse; details: brain, spinal cord, muscle, 10 mg/kg orally twice a day for 10 days
Method: This Smn protein assay compares tissues from test compound treated mice with those from DMSO vehicle treated mice to determine the increase in levels of Smn protein produced from the human SMN2 gene.
Protocol. The tissue samples in Safe-Lock tubes are weighed and the volume of RIPA buffer containing the protease inhibitor cocktail is added based on the weight to volume ratios for each type of tissue: Brain (50 mg/mL), Muscle (50 mg/mL) and Spinal Cord (25 mg/mL).
Tissues are homogenized using the TissueLyzer by bead milling. 5 mm stainless steel beads are added to the sample and shaken vigorously for 5 minutes at 30 Hz in the TissueLyzer. The samples are then centrifuged for 20 minutes at 14,000×g in a microcentrifuge and the homogenates transferred to the PCR plate. The homogenates are diluted in RIPA buffer to approximately 1 mg/mL for HTRF and approximately 0.5 mg/mL for total protein measurement using the BCA protein assay. For the SMN HTRF assay, 35 μL of the tissue homogenate is transferred to a 384-well plate containing 5 μL of the antibody solution (1:100 dilution of each of the anti-SMNd2 and anti-SMN Kryptate in reconstitution buffer). To provide a control signal, three (3) wells in the plate contain only RIPA Lysis Buffer and, thus, serve as Blank control wells. The plate is centrifuged for 1 minute to bring the solution to the bottom of the wells and then incubated overnight at room temperature. Fluorescence for each well of the plate at 665 nm and 620 nm is measured on an EnVision multilabel plate reader (Perkin-Elmer). The total protein in the tissue homogenate is measured using the BCA assay according to the manufacturer's protocol.
The normalized fluorescence signal is calculated for each sample, Blank and vehicle control well by dividing the signal at 665 nm by the signal at 620 nm. Normalizing the signal accounts for possible fluorescence quenching due to the matrix effect of the tissue homogenate. The ΔF value (a measurement of Smn protein abundance) for each tissue sample well is calculated by subtracting the normalized average fluorescence for the Blank control wells from the normalized fluorescence for each tissue sample well and then dividing this difference by the normalized average fluorescence for the Blank control wells. The ΔF value for each tissue sample well is divided by the total protein quantity (determined using the BCA assay) for that tissue sample. The change in Smn protein abundance for each tissue sample relative to the vehicle control is calculated as the percent difference in the ΔF value of the tissue sample in the presence of the test compound and the averaged ΔF value of the vehicle control signal divided by the averaged ΔF value of the vehicle control signal. […]

CC(C)NCCc1ccc2cc(-c3nc4c(Cl)cccc4s3)c(=O)oc2c1 [Cpd 35, 3-(4-chloro-1,3-benzothiazol-2-yl)-7-[2-(propan-2-ylamino)ethyl]-2H-chromen-2-one]
Smn protein in the nucleus [1]: progressively more Smn protein in the nucleus | SMN2 FL mRNA [2]: progressively more SMN2 FL mRNA | SMN2 Δ7 mRNA [2]: less SMN2 Δ7 mRNA | Smn protein levels in target tissues compared with heterozygous mice [3]: above those observed in the corresponding tissues of the heterozygous mice | total protein normalized Smn level relative to the vehicle group [3]: increased

CCN1CCN(c2ccc3cc(-c4cn5cc(C)nc(C)c5n4)c(=O)oc3c2)C[C@@H]1C [Cpd 626, 3-(6,8-dimethylimidazo[1,2-a]pyrazin-2-yl)-7-[(3S)-4-ethyl-3-methylpiperazin-1-yl]-2H-chromen-2-one]
Smn protein in the nucleus [1]: progressively more Smn protein in the nucleus | SMN2 FL mRNA [2]: progressively more SMN2 FL mRNA | SMN2 Δ7 mRNA [2]: less SMN2 Δ7 mRNA | Smn protein levels in target tissues compared with heterozygous mice [3]: above those observed in the corresponding tissues of the heterozygous mice | total protein normalized Smn level relative to the vehicle group [3]: increased
